Data on five compounds can be found in US10662475B2, “Compositions and methods for the treatment and prevention of antipsychotic medication-induced weight gain” (Centre for Addiction and Mental Health, priority 2014, dated 2020).

The conditions of data set [1]: adjunct treatment, human studies; cited from earlier work.
The conditions of data set [2]: for weight gain (% change from baseline weight): total sample, European ancestry subjects with schizophrenia or schizoaffective disorder, by antipsychotic, mean ± SD.
Description: Our sample comprised 66 European ancestry subjects aged 18-60 years with schizophrenia or schizoaffective disorder according to Diagnostic and Statistical Manual of Mental Disorders, Third Edition, Revised, or Fourth Edition (DSM-IIIR or DSM-IV) criteria.
Patients with a history of treatment refractory schizophrenia or schizoaffective disorder, or intolerance to typical antipsychotics, were treated with clozapine for 6 weeks and assessed for response and weight gain. These patients had never received a second generation antipsychotic prior to enrollment in the study, and underwent a 7-14 day washout period where they received no antipsychotic medication prior to receiving clozapine.
All analyses were done using R version 2.15.1 statistical software (R Core Team, 2012), with the rms package. Categorical variables were compared across study centres using Pearson chi-square test and continuous variables were compared using ANOVA, unless the assumptions of these tests were violated in which case Fisher's exact test and the Kruskal-Wallis test were used. Linear regression was used to test for differences in weight gain (% change from baseline weight) between genotypic groups using additive genotypic model with adjustment for relevant covariates.
The next data set relates to GLP-1. To be noted: rat models; effects seem to occur after a longer treatment period; cited from earlier work.
Data set [3] can be described thus: Antipsychotic-induced weight change, orexin receptor (HCRTR1/HCRTR2) SNP association study. Type of data set: in vivo, human. Conditions: Sample HYM n = 74, all on clozapine, 6 weeks. From the text: Written informed consent was obtained from all participants. […] Exclusion criteria for these studies included pregnancy, organic brain disorder, severe head injuries, previous medical conditions which required treatment and were not stable (Hepatitis C, HIV, Thyroid disorder or diabetes mellitus), substance dependence, clinically relevant mental retardation and severe personality disorder.
Genomic DNA was extracted from blood samples using the high-salt method (Lahiri and Nurnberger 1991). […] A total of 5 tagSNPs covering a 20 kb region including HCRTR1 (˜9.6 kb) and 28 tagSNPs covering 120 kb including HCRTR2 (˜108 kb) were included in this study.
Analysis of covariance (ANCOVA) was used to test association between genotype and weight change (%) from baseline as the dependent variable, genotypes as fixed factor and, baseline weight and duration of treatment as covariates. Corrections for multiple tests were calculated using Single Nucleotide Polymorphism Spectral Decomposition (SNPSpD, (Nyholt 2004)). Power calculations were performed using Quanto 1.2.4 (Gauderman and Morrison 2006). Assuming a minor allele frequency of 0.25 and a sample size of n=130, we had more than 80% power to detect a mean difference of 3.6% between carriers and non-carriers of the risk genotype in an additive or dominant model.

The conditions of data set [4]: total sample N=128, patients treated with clozapine, risperidone, olanzapine or haloperidol.
The target in the next data set is T1, TSPO (Mus musculus, UniProt P50637).
T1 construct: host or cells: high-fat diet induced obese mice (in vivo)
Conditions: high-fat diet induced obese mice; cited from earlier work.

For the compound `CC(=O)[C@H]1CC[C@H]2[C@@H]3CC=C4C[C@@H](O)CC[C@]4(C)[C@H]3CC[C@]12C` [pregnenolone], in data set [1], the symptoms of schizophrenia result was “improves symptoms of schizophrenia”.
Regarding `O=C(CCCN1CCC(O)(c2ccc(Cl)cc2)CC1)c1ccc(F)cc1` [haloperidol], the “weight gain (% change from baseline weight)” value in data set [2] is listed as −4.17%±15.2.
On to `OCCOCCN1CCN(C2=Nc3ccccc3Sc3ccccc32)CC1` [quetiapine], for which the GLP-1 levels entry in the data set on GLP-1 is listed as “decrease GLP-1 levels”.
For `CN1CCN(C2=Nc3cc(Cl)ccc3Nc3ccccc32)CC1` [clozapine], the “Weight change ± SD (%)” value in data set [2] (Sample HYM n = 54, all on clozapine, 6 weeks) amounted to 3.84 ± 5.8%. Moreover, the “weight gain (% change from baseline weight)” value in data set [2] is given as 3.99%±5.8. In data set [3], the “Weight gain <7%, n (%)” value is given as 47 (63.5) n (%) and the “Weight gain ≥7%, n (%)” value is 27 (36.5) n (%). Besides, in data set [3] (mean ± SD), the “Weight change” value was 3.76 ± 4.4 kg and the “Weight change (%)” value is given as 5.35 ± 6.3%. Moreover, the weight gain entry in data set [4] is listed as “highest weight gain”.
Consider `CCC(C)N(C)C(=O)c1cc2ccccc2c(-c2ccccc2Cl)n1` (centres unmarked) [PK1195], for which, at TSPO, the “lipid accumulation in the liver, free and LDL cholesterol, and blood glucose levels” value was “significantly lowered”.
